Patent publication US20250281480A1, “PHARMACEUTICAL DRY POWDER INHALATION FORMULATION” (Bayer Aktiengesellschaft, priority 2021, published 2025)
Several values for one entry are separate records, joined by “and”; a condition that tells them apart may be missing. Equal entries are not always repeated.

What was measured:
[1] = test system: anesthetized thromboxane A2 challenged PAH-minipig; assay: Haemodynamics in the anesthetized thromboxane challenged minipig (PAH minipig), inhaled nebulized solution: lung selectivity and duration of action; type: in vivo, Göttingen Minipigs
Method: (§1) Healthy Göttingen Minipigs® Ellegaard (Ellegaard, Denmark) of both sexes and having a weight of 2-6 kg were used. The animals were sedated by i.m. administration of about 25 mg/kg ketamine and about 10 mg/kg azaperone. Anaesthesia was initiated by i.v. administration of about 2 mg/kg ketamine and about 0.3 mg/kg midazolam. Maintenance of anaesthesia was by i.v. administration of about 7.5-30 mg/kg/h ketamine and about 1-4 mg/kg/h midazolam (rate of infusion 1-4 ml/kg/h) and about 150 μg/kg/h pancuronium bromide (for example Pancuronium-Actavis). After intubation, the animals were ventilated by the ventilator at a constant respiratory volume (10-12 ml/kg, 35 breaths/min; Avea®, Viasys Healthcare, USA, or Engström Carestation, GE Healthcare, Freiburg, Germany) such that an end-tidal CO2 concentration of about 5% was achieved. Ventilation was performed with room air, enriched with about 40% oxygen (normoxia). For the measurement of the haemodynamic parameters such as pulmonary arterial pressure (PAP), blood pressure (BP) and heart rate (HR), catheters were inserted into the carotid artery to measure the blood pressure, and a Swan-Ganz® catheter was introduced in a flow-directed manner via the jugular vein into the pulmonary artery. The haemodynamic signals were recorded and evaluated by means of pressure transducers (Combitransducer, B. Braun, Melsungen, Germany)/amplifiers and Ponemah® as data acquisition software.
After the instruments have been placed into the animals, continuous infusion of a thromboxane A2 analog was initiated to increase the pulmonary arterial pressure. About 0.3-0.75 μg/kg/min of 9,11-didesoxy-9α,11α-epoxymethanoprostaglandine F2α (U-44069; Sigma, cat. no. D0400, or Cayman Chemical Company, cat. no. 16440), dissolved in physiological saline, were infused to achieve an increase of the mean pulmonary arterial pressure to values of over 25 mmHg. 30 minutes after the start of the infusion, a plateau was reached, and the experiment was started.
The test substances were administered as i.v. infusion or by inhalation. For the preparation of the solution for inhalation, the following procedure was adopted: For an animal having a weight of 4 kg, to prepare the stock solution (300 μg/kg), 1.2 mg of the test compound were weighed out and dissolved in a total volume of 3 ml (1% DMSO, 99% 0.2% strength citric acid solution, 1 n aqueous sodium hydroxide solution to adjust the pH to 8). The solution was then diluted to the concentration employed using 0.2% strength citric acid which had been adjusted to pH 8 beforehand with aqueous sodium hydroxide solution. In each test, 3 ml of the solution of test compound per 4 kg animal were nebulized in the inhalation arm of the respiratory circuit using the Aeroneb® Pro nebulizer system. The mean nebulization time was about 7 min from the start of the nebulization.
With respect to a prediction of the duration of action for human studies comparative example 11 was compared in the PAH minipig model after inhaled application to Ventavis® (=Iloprost, 10 μg/kg nominal dose), which we used as a clinical reference. […] Therefore, the duration of action is more than 6 times longer compared to Ventavis in this preclinical animal model.

[2] = test system: anesthetized PAH minipigs; assay: PAH minipig, intratracheal application of dry powder formulations and of different hydrates (PAP, BP); type: in vivo, Göttingen Minipigs; conditions: for efficacy with regard to PAP reduction and systemic BP reduction: micronized hydrates; for PAP(mean) / BP (mean): per animal; for % changes vs. baseline on PAP: intratracheal application
Method: as §1
About 0.3-0.75 μg/kg/min of 9,11-didesoxy-9α,11α-epoxymethanoprostaglandine F2α (U-44069; Sigma, cat. no. D0400, or Cayman Chemical Company, cat. no. 16440), dissolved in physiological saline, were infused to achieve an increase of the mean pulmonary arterial pressure to values of over 25 mmHg.
After characterization of the effects of comparative example 11 after nebulization of compound solutions, in a further step the effects of crystalline forms of comparative example 11, e.g. sesquihydrate, e.g. example 6e on PAP and BP after inhaled application of different dry powder lactose formulations (table 52) were studied in anesthetized PAH minipigs.
As reference pure Lactose vehicle was applied in the beginning of each experiment.

[3] = % vs. prevalues, 375 μg/kg i.t., time 60, each animal
[4] = % vs. prevalues, 375 μg/kg i.t., time 70, each animal
[5] = 375 μg/kg i.t., time 0, Sesquihydrate
[6] = 375 μg/kg i.t., time −10, Sesquihydrate

O=C(O)CCCCN(CCc1cc(F)ccc1OCc1ccc(-c2nc3cc(Cl)ccc3o2)cc1)C1CCCc2nc(C(=O)O)ccc21 (single isomer, unassigned) [compound 3, (5)-{(4-carboxybutyl)[2-(2-{[4-(5-chloro-1,3-benzoxazol-2-yl)benzyl]oxy}-5-fluorophenyl)ethyl]amino}-5,6,7,8-tetrahydroquinoline-2-carboxylic Acid, reference compound]
effect on PAP completely resolved after ([1]; inhaled application): 120 min
time of maximal effect on PAP after inhaled application ([1]; nebulized solution): 30 min

O.O=C(O)c1ccc(CCN(CCc2ccccc2OCc2ccc(-c3ccc(C(F)(F)F)cc3)cc2Cl)[C@H]2CCCc3nc(C(=O)O)ccc32)cc1.O=C(O)c1ccc(CCN(CCc2ccccc2OCc2ccc(-c3ccc(C(F)(F)F)cc3)cc2Cl)[C@H]2CCCc3nc(C(=O)O)ccc32)cc1 [Example 6a, (5S)—{[2-(4-Carboxyphenyl)ethyl][2-(2-{[3-chloro-4′-(trifluoromethyl)biphenyl-4-yl]methoxy}phenyl)-ethyl]amino}-5,6,7,8-tetrahydroquinoline-2-carboxylic Acid Semihydrate]
efficacy with regard to PAP reduction and systemic BP reduction ([2]; 375 μg/kg i.t.): comparable efficacy
PAP(mean) ([2]; 375 μg/kg i.t., time 170): 24.0 mmHg and 32.4 mmHg and 29.9 mmHg
BP (mean) ([2]; 375 μg/kg i.t., time 180): 94 mmHg
PAP(mean) ([2]; 375 μg/kg i.t., time 180): 23.7 mmHg
BP (mean) ([2]; 375 μg/kg i.t., time 190): 94 mmHg and 93 mmHg
PAP(mean) ([2]; 375 μg/kg i.t., time 190): 24.4 mmHg and 32.4 mmHg and 29.2 mmHg
PAP(mean) ([2]; 375 μg/kg i.t., time 200): 24.8 mmHg and 32.4 mmHg and 29.4 mmHg
BP (mean) ([2]; 375 μg/kg i.t., time 210): 91 mmHg
PAP(mean) ([2]; 375 μg/kg i.t., time 210): 24.8 mmHg and 29.2 mmHg
PAP(mean) ([2]; 375 μg/kg i.t., time 220): 24.7 mmHg and 29.1 mmHg
PAP(mean) ([2]; 375 μg/kg i.t., time 230): 24.0 mmHg
BP (mean) ([2]; 375 μg/kg i.t., time 240): 77 mmHg
PAP(mean) ([2]; 375 μg/kg i.t., time 240): 24.1 mmHg and 28.1 mmHg
BP (mean) ([2]; 375 μg/kg i.t., time 250): 76 mmHg
PAP(mean) ([2]; 375 μg/kg i.t., time 250): 24.2 mmHg and 28.1 mmHg
BP (mean) ([2]; 375 μg/kg i.t., time 260): 76 mmHg
PAP(mean) ([2]; 375 μg/kg i.t., time 260): 24.1 mmHg and 30.6 mmHg and 28.1 mmHg
BP (mean) ([2]; 375 μg/kg i.t., time 270): 76 mmHg
PAP(mean) ([2]; 375 μg/kg i.t., time 270): 24.4 mmHg and 30.6 mmHg and 27.8 mmHg
BP (mean) ([2]; 375 μg/kg i.t., time 280): 75 mmHg
PAP(mean) ([2]; 375 μg/kg i.t., time 280): 24.3 mmHg and 28.0 mmHg
BP (mean) ([2]; 375 μg/kg i.t., time 290): 75 mmHg
PAP(mean) ([2]; 375 μg/kg i.t., time 290): 24.1 mmHg and 27.6 mmHg
BP (mean) ([2]; 375 μg/kg i.t., time 300): 77 mmHg
PAP(mean) ([2]; 375 μg/kg i.t., time 300): 23.7 mmHg and 30.5 mmHg and 27.7 mmHg
BP [2, 3]: 100.6% and 99.7% and 97.2%
PAP [2, 3]: 100.7% and 99.4% and 99.2%
BP [2, 4]: 102.6%
PAP [2, 4]: 94.7%

O.O.O.O=C(O)c1ccc(CCN(CCc2ccccc2OCc2ccc(-c3ccc(C(F)(F)F)cc3)cc2Cl)[C@H]2CCCc3nc(C(=O)O)ccc32)cc1.O=C(O)c1ccc(CCN(CCc2ccccc2OCc2ccc(-c3ccc(C(F)(F)F)cc3)cc2Cl)[C@H]2CCCc3nc(C(=O)O)ccc32)cc1 [Example 6e, (5S)—{[2-(4-Carboxyphenyl)ethyl][2-(2-{[3-chloro-4′-(trifluoromethyl)biphenyl-4-yl]methoxy}phenyl)-ethyl]amino}-5,6,7,8-tetrahydroquinoline-2-carboxylic Acid Sesquihydrate]
efficacy with regard to PAP reduction and systemic BP reduction ([2]; 375 μg/kg i.t.): comparable efficacy
BP (mean) [2, 5]: 104 mmHg
PAP(mean) [2, 5]: 41.9 mmHg
BP (mean) [2, 6]: 107 mmHg
PAP(mean) [2, 6]: 36.4 mmHg and 37.5 mmHg
% changes vs. baseline on PAP ([2]; time 80 (baseline = 100), each animal): 100.0%
% changes vs. baseline on PAP ([2]; time 90, each animal, Sesquihydrate): 98.9% and 103.6% and 99.8%
% changes vs. baseline on PAP ([2]; time 100, each animal, Sesquihydrate): 99.5% and 101.4% and 97.3%
% changes vs. baseline on PAP ([2]; time 110, each animal, Sesquihydrate): 89.3% and 98.7% and 86.8%
% changes vs. baseline on PAP ([2]; time 120, each animal, Sesquihydrate): 84.0% and 95.6% and 75.7%
% changes vs. baseline on PAP ([2]; time 130, each animal, Sesquihydrate): 78.9% and 93.7% and 70.2%
% changes vs. baseline on PAP ([2]; time 140, each animal, Sesquihydrate): 75.2% and 91.8% and 67.5%
% changes vs. baseline on PAP ([2]; time 150, each animal, Sesquihydrate): 74.0% and 76.0% and 65.4%
% changes vs. baseline on PAP ([2]; time 160, each animal, Sesquihydrate): 71.0% and 79.5% and 65.9%
% changes vs. baseline on PAP ([2]; time 170, each animal, Sesquihydrate): 68.5% and 74.3% and 61.5%
% changes vs. baseline on PAP ([2]; time 180, each animal, Sesquihydrate): 63.2% and 80.8% and 62.0%
% changes vs. baseline on PAP ([2]; time 190, each animal, Sesquihydrate): 61.5% and 80.8% and 58.6%
% changes vs. baseline on PAP ([2]; time 200, each animal, Sesquihydrate): 62.3% and 80.3% and 60.2%
% changes vs. baseline on PAP ([2]; time 210, each animal, Sesquihydrate): 61.0% and 80.7% and 59.4%
% changes vs. baseline on PAP ([2]; time 220, each animal, Sesquihydrate): 59.5% and 86.3% and 57.8%
% changes vs. baseline on PAP ([2]; time 230, each animal, Sesquihydrate): 58.6% and 82.6% and 57.8%
% changes vs. baseline on PAP ([2]; time 240, each animal, Sesquihydrate): 59.3% and 81.5% and 57.6%
% changes vs. baseline on PAP ([2]; time 250, each animal, Sesquihydrate): 59.3% and 82.2% and 56.1%
% changes vs. baseline on PAP ([2]; time 260, each animal, Sesquihydrate): 58.8% and 82.7% and 57.6%
% changes vs. baseline on PAP ([2]; time 270, each animal, Sesquihydrate): 59.9% and 78.3% and 55.4%
% changes vs. baseline on PAP ([2]; time 280, each animal, Sesquihydrate): 58.4% and 78.3% and 55.9%
% changes vs. baseline on PAP ([2]; time 290, each animal, Sesquihydrate): 57.4% and 79.6% and 53.9%
% changes vs. baseline on PAP ([2]; time 300, each animal, Sesquihydrate): 60.1% and 78.7% and 54.5%
% changes vs. baseline on PAP ([2]; time 310, each animal, Sesquihydrate): 58.4% and 77.6% and 53.7%
% changes vs. baseline on PAP ([2]; time 320, each animal, Sesquihydrate): 61.8% and 76.3% and 55.1%
% changes vs. baseline on PAP ([2]; time 330, each animal, Sesquihydrate): 61.3% and 74.8% and 53.0%
PAP ([2]; time 20 min, lactose vehicle first, test powder 1.5 mg/4 kg i.t. @90 min, per animal (n = 3), Sesquihydrate): 42.0 mmHg and 37.5 mmHg
BP ([2]; time 30 min, lactose vehicle first, test powder 1.5 mg/4 kg i.t. @90 min, per animal (n = 3)): 104 mmHg
PAP ([2]; time 30 min, lactose vehicle first, test powder 1.5 mg/4 kg i.t. @90 min, per animal (n = 3), Sesquihydrate): 41.9 mmHg and 37.1 mmHg and 37.5 mmHg
PAP ([2]; time 40 min, lactose vehicle first, test powder 1.5 mg/4 kg i.t. @90 min, per animal (n = 3), Sesquihydrate): 42.0 mmHg and 37.3 mmHg and 38.6 mmHg
PAP ([2]; time 50 min, lactose vehicle first, test powder 1.5 mg/4 kg i.t. @90 min, per animal (n = 3), Sesquihydrate): 41.4 mmHg and 37.4 mmHg and 39.8 mmHg
PAP ([2]; time 60 min, lactose vehicle first, test powder 1.5 mg/4 kg i.t. @90 min, per animal (n = 3), Sesquihydrate): 41.4 mmHg and 36.8 mmHg and 41.2 mmHg
PAP ([2]; time 70 min, lactose vehicle first, test powder 1.5 mg/4 kg i.t. @90 min, per animal (n = 3), Sesquihydrate): 41.0 mmHg and 37.4 mmHg and 41.3 mmHg
PAP ([2]; time 80 min, lactose vehicle first, test powder 1.5 mg/4 kg i.t. @90 min, per animal (n = 3), Sesquihydrate): 40.9 mmHg and 38.1 mmHg and 40.8 mmHg
BP ([2]; time 90 min, lactose vehicle first, test powder 1.5 mg/4 kg i.t. @90 min, per animal (n = 3)): 102 mmHg
PAP ([2]; time 90 min, lactose vehicle first, test powder 1.5 mg/4 kg i.t. @90 min, per animal (n = 3), Sesquihydrate): 40.4 mmHg and 39.5 mmHg
